# Laboratory results from ChEMBL document CHEMBL5360529, “Pyrimidine derivatives with antitubercular activity” (Eur J Med Chem, 2023).
# Molecular target: T1, Thymidylate kinase (Mycobacterium tuberculosis, UniProt P9WKE1)
# T1 sequence (P9WKE1 whole entry): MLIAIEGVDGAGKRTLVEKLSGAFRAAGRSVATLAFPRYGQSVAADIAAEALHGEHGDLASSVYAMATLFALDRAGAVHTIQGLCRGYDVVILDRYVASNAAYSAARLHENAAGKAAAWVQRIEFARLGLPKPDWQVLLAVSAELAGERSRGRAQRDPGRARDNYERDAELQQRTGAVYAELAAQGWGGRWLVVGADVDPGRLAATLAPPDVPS
# Test: Inhibition of recombinant Mycobacterium tuberculosis TMPK overexpressed in Escherichia coli assessed as inhibition constant by spectrophotometric assay
smiles,measurement,value
Cc1cn(C/C=C\CN2c3cccc4cccc(c34)S2(=O)=O)c(=O)[nH]c1=O,Ki,270 nM
